In patent EP0761222A1, “Use of orotic acid for the preparation of a medicament for amelioration of microcirculation” (WÖRWAG PHARMA GmbH, priority 1995, dated 1997):

How the values were obtained:
Type in all cases: in vivo
Kaninchen [1] = experiment: Arteriosclerosis model under 2 % cholesterol diet, planimetric-photographic (density slice) and histological evaluation of vessels; settings: 112 Tage 2 % cholesterol diet; for Index arteriosklerotischer Gefäßveränderungen (Gefäßverengungen): equimolar amounts, untreated control index 34,36, Fig. 1
Excerpt: (§1) In einer Versuchsreihe mit einem Arteriosklerose-Modell wurden Kaninchen über 112 Tage einer zweiprozentigen Cholesterindiät ausgesetzt und mit äquimolaren Mengen von` Magnesiumchlorid, Orotsäure und Magnesiumorotat bzw. in der Kontrollgruppe überhaupt nicht weiter behandelt. Zusätzlich zu histologischen Untersuchungen der Koronaarterien sowie der Aorta femoralis und renalis wurde der Zustand der Aorta an jeweils mehreren Stellen auch planimetrisch-photographisch dokumentiert. Mittels einer computergestützten, digitalen Methode der Oberflächenmessung ("density slice"-Methode) erhält man hierbei dreidimensionale Bilder, mit deren Hilfe auch eine Quantifizierung der cholesterininduzierten Lumeneinengungen möglich ist.

Kaninchen [2] = experiment: Coronary angiography in the arteriosclerosis model of Beispiel 2; settings: cholesterol stress, untreated control developed Mikroangiopathien
Excerpt: as §1
Zusätzlich zu den planimetrisch-photographischen Untersuchungen wurde bei der Versuchsreihe aus Beispiel 2 auch eine koronarangiographische Untersuchung vorgenommen.

Triathleten = experiment: Double-blind, randomised, placebo-controlled triathlon test, parameters of energy metabolism in blood; settings: four weeks Magnesiumorotat 17 mmol/Tag
Excerpt: In einer doppelblinden, randomisierten und placebokontrollierten Studie wurden 23 Triathleten einem 500 m Schwimm-, 20 km Fahrrad- und 5.000 m Lauftest nach einer vierwöchigen Magnesiumorotat-Supplementierung von 17 mmol/Tag unterworfen. Die Tests wurden ohne Pausen direkt hintereinander absolviert. Vor dem Test, zwischen den Disziplinen und am Ende wurde den Probanden Blut entnommen und auf Parameter des Energiestoffwechsels untersucht.

Wistar-Ratten = experiment: Hypertension animal model (ROG-Modell, LG-Modell), malignant hypertension
Excerpt: In den Hypertonie-Tiermodellen nach Rojo-Ortega-Genest (ROG-Modell) und Lörincz-Goracz (LG-Modell) wird bei Wistar-Ratten die Aorta zwischen den beiden Renalarterien unterbunden bzw. die Niere in eine Gummimanschette fest eingepreßt, was einen malignen Hypertonus hervorruft, also eine Hypertonie mit konstanter Erhöhung des arteriellen diastolischen Blutdruckes auf > 120 mmHg.
Das Ergebnis dieser Untersuchung ist in Fig. 2 dargestellt, wobei die dunklen Säulen jeweils den Beginn der ROG-Hypertonie anzeigen, während die hellen Säulen das Ende der ROG-Hypertonie darstellen. Links in Fig. 2 ist die ROG-Hypertonie ohne Behandlung gezeigt, während die beiden rechten Säulen den Verlauf der ROG-Hypertonie unter Zugabe von täglich 300 mg Magnesiumorotat wiedergibt.

[3] = test system: Patienten mit Durchblutungsstörungen; experiment: Effect of a single oral dose of Magnesiumorotat on flow properties of human blood, blood pressure and transcutaneous oxygen pressure
Protocol: 10 Patienten mit Durchblutungsstörungen wurden 4 g Magnesiumorotat zusammen mit ca. 150 ml Wasser verabreicht. Die Blutentnahme erfolgte vor und im Abstand von 15, 30, 60, 120 und 180 Minuten nach der Tabletteneinnahme. Direkt vor jeder Blutentnahme wurden Blutdruck, Puls, der transkutane Sauerstoffdruck, der transkutane Kohlendioxiddruck und die Heizleistungsabweichung gemessen. Es wurden folgende Blutparameter untersucht: • Hämatokrit • BSC • Plasmaviskosität • Erythrozytenaggregation • Erythrozytenfiltrabilität.
Es wurde eine Senkung des systemischen Druckes, insbesondere des systolischen Druckes, bis zum Zeitpunkt 60 Minuten nach Tablettenvergabe festgestellt. Die relative Plasmaviskosität erreicht 60 Minuten nach Tabletteneinnahme ihr Minimum mit anschließender Tendenz zur Normalisierung. In ähnlicher Weise verhält sich die Blutviskosität, die 30 Minuten nach Tabletteneinnahme ein Minimum aufweist.
Besonders interessant sind die Veränderungen der transkutanen Sauerstoffdruckwerte, die im Bereich des Vorfußes abgenommen werden. Bei diesen Patienten mit einer chronisch-arteriellen Verschlußkrankheit sind die tcpO2-Werte bekannterweise nicht sonderlich erniedrigt. Die Ergebnisse der pO2-Werte zeigen doch, daß es zu einem Anstieg der pO2-Werte kommt, die zu dem Zeitpunkt 15 und 30 Minuten statistisch gesichert sind. Dieser Anstieg der tcpO2-Werte überrascht und beruht auf den verbesserten Fließeigenschaften des Blutes.

SMILES	Index arteriosklerotischer Gefäßveränderungen (Gefäßverengungen) (Kaninchen [1])	lumeneinengende Proliferation von Schaumzellen in den Koronarien (Kaninchen [1]; light/electron microscopy, enzyme histochemistry)	Wirkung bei Mikroangiopathien von kleinen und kleinsten Blutgefäßen am Herzen (Kaninchen [2])	Insulinkonzentration (Triathleten; control group 139 ± 101 %, significant) [% der Anfangswerte]	Anstieg der Glukosekonzentration während des Tests (Triathleten; control group 187 ± 34 %, significantly lower) [%]	periarterielle Zellinfiltrationen und Herzmuskelzellausfälle (Wistar-Ratten; 300 mg Magnesiumorotat daily, compared with no treatment)	Blutdruck systolisch, Ende der ROG-Hypertonie (Wistar-Ratten; ROG-Modell, 300 mg Magnesiumorotat daily, untreated control animals 186 mmHg) [mmHg]	Blutdruck systolisch, Ausgangswert (Wistar-Ratten; ROG-Modell, start of ROG-Hypertonie, treated group, control 81 mmHg) [mmHg]	systemischer Druck, insbesondere systolischer Druck ([3]; 4 g Magnesiumorotat oral, single dose, 10 patients, until 60 Minuten after tablet intake)	Erythrozytenfiltrationswerte ([3]; 4 g Magnesiumorotat oral, 15-180 Minuten after intake)	transkutane Sauerstoffdruckwerte (tcpO2-Werte), Vorfuß ([3]; 4 g Magnesiumorotat oral, statistically confirmed at 15 and 30 Minuten)	Hämatokritwert ([3]; 4 g Magnesiumorotat oral, tendency to rise again at end of test)	Zeitpunkt des Minimums der Blutviskosität ([3]; 4 g Magnesiumorotat oral, time after tablet intake) [Minuten]	Zeitpunkt des Minimums der relativen Plasmaviskosität ([3]; 4 g Magnesiumorotat oral, time after tablet intake, then tendency to normalise) [Minuten]	Mikrozirkulation (Kapillarfluß an dem Nagelbett) ([3]; acute oral dose of 4 g Magnesiumorotat)	Blut- und Plasmaviskosität ([3]; acute oral dose of 4 g Magnesiumorotat, patients with arterial occlusive disease)
[Cl-].[Cl-].[Mg+2] [Magnesiumchlorid, reference compound]	22,63	–	–	–	–	–	–	–	–	–	–	–	–	–	–	–
O=C(O)c1cc(=O)[nH]c(=O)[nH]1 [Magnesiumorotat]	7,28	weitaus am geringsten ausgeprägt	präventive und therapeutische Wirkung	65 ± 43	118 ± 45	weit weniger	152	79	Senkung	zu keinem Zeitpunkt nach der oralen Gabe von Magnesiumorotat zu statistisch signifikanten Veränderungen	Anstieg	temporäre Abnahme	30	60	erheblich verbesserten	signifikant vermindert
O=C(O)c1cc(=O)[nH]c(=O)[nH]1 [Orotsäure]	9,77	–	präventive und therapeutische Wirkung	–	–	–	–	–	–	–	–	–	–	–	–	–
